Results on 30 compounds are retold here after patent US4382939A, “3-[2-(Mono-and dialkylamino)propyl]-1,2,3,4-tetrahydro-5H-[1]benzopyrano[3,4-C]pyridin- 5-ones useful for treating bronchospastic diseases” (Warner Lambert Company, priority 1982, dated 1983).

Structures can show the parent of a compound that is named as a salt.

For the assay, the system named is collapse on exposure to an aerosol of methacholine. Nature of the assay: Anticholinergic test: prolongation of collapse time in conscious guinea pigs exposed to an aerosol of methacholine. In kind it is in vivo. The settings on record: guinea pig, 25 mg/kg intraperitoneally; 10 minutes methacholine aerosol; Control 1.9 to 2.0. The procedure:
The compounds of the invention display anticholinergic properties when tested by the following procedure: Conscious guinea pigs, six at a time, are put into a sealed chamber and exposed for 10 minutes to an aerosol of methacholine. Untreated animals or those treated with vehicle will collapse in 1.9±0.1 minutes. Groups of animals are injected intraperitoneally with 25 mg/kg of test compound and exposed in the chamber under the same conditions. Compounds which prolong the collapse time past that of the control animals are considered active.

For `CCN(CC)C(C)CN1CCc2c(c(=O)oc3c(OC)c(OC)ccc23)C1` (stereo not drawn) [H MeO MeO Et Et, 3-[2-(Diethylamino)propyl]-1,2,3,4-tetrahydro-7,8-dimethoxy-5H-[1]benzopyrano[3,4-c]pyridin-5-one], the “(Minutes Protection)” value turned out to be 7.6 min.
Turning to `COc1ccc2c3c(c(=O)oc2c1OC)CN(CC(C)N(C)C)CC3.Cl.Cl` (stereo not drawn) [H MeO MeO Me Me, 3-[2-(Dimethylamino)propyl]-1,2,3,4-tetrahydro-7,8-dimethoxy-5H-[1]benzopyrano[3,4-c]pyridin-5-one dihydrochloride], the “(Minutes Protection)” value came to 5.5 min.
With `CCNC(C)CN1CCc2c(c(=O)oc3cc(OC)ccc23)C1` (stereo not drawn) [H MeO H Et H, 3-[2-(Ethylamino)propyl]-1,2,3,4-tetrahydro-8-methoxy-5H-[1]benzopyrano[3,4-c]pyridin-5-one] the figure was 7.5 min; with `CCN(CC)C(C)CN1CCc2c(c(=O)oc3cc(OC)ccc23)C1` (stereo not drawn) [H MeO H Et Et, 3-[2-(Diethylamino)propyl]-1,2,3,4-tetrahydro-8-methoxy-5H-[1]benzopyrano[3,4-c]pyridin-5-one], 10.0 min; with `CCCN(CC)C(C)CN1CCc2c(c(=O)oc3cc(OC)c(OC)cc23)C1` (stereo not drawn) [MeO MeO H Et n-Pr, 3-[2-(Ethylpropylamino)propyl]-1,2,3,4-tetrahydro-8,9-dimethoxy-5H-[1]benzopyrano[3,4-c]pyridin-5-one], 3.7 min.
With `CCNC(C)CN1CCc2c(c(=O)oc3cc(C)c(Cl)cc23)C1` (stereo not drawn) [Cl Me H Et H, 9-Chloro-3-[2-(ethylamino)propyl]-1,2,3,4-tetrahydro-8-methyl-5H-[1]benzopyrano[3,4-c]pyridin-5-one] the figure was 3.1 min; with `CNC(C)CN1CCc2c(c(=O)oc3cc(C)c(NC(C)=O)cc23)C1` (stereo not drawn) [AcNH Me H Me H, N-[1,3,4,5-Tetrahydro-8-methyl-3-[2-(methylamino)propyl]-5-oxo-2H-[1]benzopyrano[3,4-c]pyridin-9-yl]acetamide], 10.0 min; with `CCN(C)C(C)CN1CCc2c(c(=O)oc3c(OC)c(OC)ccc23)C1.Cl.Cl` (stereo not drawn) [H MeO MeO Me Et, 3-[2-(Ethylmethylamino)propyl]-1,2,3,4-tetrahydro-7,8-dimethoxy-5H-[1]benzopyrano[3,4-c]pyridin-5-one dihydrochloride], 5.0 min.
With `CCNC(C)CN1CCc2c(c(=O)oc3c(OC)c(OC)ccc23)C1` (stereo not drawn) [H MeO MeO Et H, 3-[2-(Ethylamino)propyl]-1,2,3,4-tetrahydro-7,8-dimethoxy-5H-[1] benzopyrano[3,4-c]pyridin-5-one] the figure was 9.1 min; with `CC(CN1CCc2c(c(=O)oc3c2ccc2ccccc23)C1)N(C)C` (stereo not drawn) [H CHCHCHCH Me Me, 2-[2-(Dimethylamino)propyl]-1,2,3,4-tetrahydro-12H-naphtho-[2',1':5,6]pyrano[3,4-c]pyridin-12-one dihydrochlorine], 5.9 min.
On to `CCCN(C)C(C)CN1CCc2c(c(=O)oc3cc(OC)ccc23)C1` (stereo not drawn) [H MeO H Me n-Pr, 1,2,3,4-Tetrahydro-8-methoxy-3[2-(methylpropylamino)propyl]-5H-[1]benzopyrano[3,4-c]pyridin-5-one], for which the “(Minutes Protection)” value was determined as 10.0 min.
Regarding `CCCCN(CC)C(C)CN1CCc2c(c(=O)oc3cc(OC)c(OC)cc23)C1` (stereo not drawn) [MeO MeO H Et Bu, 3-[2-(Butylethylamino)propyl]-1,2,3,4-tetrahydro-8,9-dimethoxy-5H-[1]benzopyrano[3,4-c]pyridin-5-one], the “(Minutes Protection)” value came to 3.7 min.
For `CCCN(C)C(C)CN1CCc2c(c(=O)oc3cc(OC)c(OC)cc23)C1` (stereo not drawn) [MeO MeO H Me n-Pr, 1,2,3,4-Tetrahydro-8,9-dimethoxy-3-[2-(methylpropylamino)propyl]-5H-[1]benzopyrano[3,4-c]pyridin-5-one], the “(Minutes Protection)” value stood at 2.5 min.
As for `Cc1cc2oc(=O)c3c(c2cc1C)CCN(CC(C)N(C)C)C3` (stereo not drawn) [Me Me H Me Me, 3-[2-(Dimethylamino)propyl]-1,2,3,4-tetrahydro-8,9-dimethyl-5H-[1]benzopyrano[3,4-c]pyridin-5-one], the “(Minutes Protection)” value is 4.8 min.
For `CC(CN1CCc2c(c(=O)oc3cc4c(cc23)OCO4)C1)N(C)C` (stereo not drawn) [OCH2O H Me Me, 3-[2-(Dimethylamino)propyl]-1,2,3,4-tetrahydro-5H-[1,3]benzodioxolo]5',6':5,6]pyrano[3,4-c]pyridin-5-one dihydrochloride], the “(Minutes Protection)” value came out at 2.3 min.
With `CNC(C)CN1CCc2c(c(=O)oc3cc(OC)ccc23)C1` (stereo not drawn) [H MeO H Me H, 1,2,3,4-Tetrahydro-8-methoxy-3-[2-(methylamino)propyl]-5H-[1]benzopyrano[3,4-c]pyridin-5-one] the figure was 8.6 min.
Regarding `CNC(C)CN1CCc2c(c(=O)oc3cc(C)ccc23)C1` (stereo not drawn) [H Me H Me H, 1,2,3,4-Tetrahydro-8-methyl-3-[2-(methylamine)propyl]-5H-[1]-benzopyrano[3,4-c]pyridin-5-one], the “(Minutes Protection)” value was found to be 2.1 min.
The value for `CCCCN(C)C(C)CN1CCc2c(c(=O)oc3cc(C)ccc23)C1` (stereo not drawn) [H Me H Me n-Bu, 3-[2-(Butylmethylamino)propyl]-1,2,3,4-tetrahydro-8-methyl-5H-[1]benzopyrano[3,4-c]pyridin-5-one] was 7.8 min; that for `CCN(CC(C)C)C(C)CN1CCc2c(c(=O)oc3cc(OC)c(OC)cc23)C1` (stereo not drawn) [MeO MeO H Et s-Bu, 3-[2-[Ethyl(2-methylpropyl)amino]propyl]-1,2,3,4-tetrahydro-8,9-dimethoxy-5H-[1]benzopyrano[3,4-c]pyridin-5-one] was 5.4 min.
`CCCN(C)C(C)CN1CCc2c(c(=O)oc3cc(C)ccc23)C1` (stereo not drawn) [H Me H Me n-Pr, 1,2,3,4-Tetrahydro-8-methyl-3-[2-(methylpropylamino)propyl]-5H-[1]benzopyrano[3,4-c]pyridin-5-one]: the “(Minutes Protection)” value came out at 5.4 min.
Turning to `CCN(C)C(C)CN1CCc2c(c(=O)oc3cc(OC)ccc23)C1` (stereo not drawn) [H MeO H Me Et, 3-[2-(Ethylmethylamino)propyl]-1,2,3,4-tetrahydro-8-methoxy-5H-[1]benzopyrano[3,4-c]pyridin-5-one], the “(Minutes Protection)” value is 9.1 min.
Consider `CCOc1cc2oc(=O)c3c(c2cc1OCC)CCN(CC(C)N(CC)CC)C3.Cl.Cl` (stereo not drawn) [EtO EtO H Et Et, 3-[2-(Diethylamino)propyl]-1,2,3,4-tetrahydro-8,9-diethoxy-5H-[1]benzopyrano[3,4-c]pyridin-5-one dihydrochloride], for which the “(Minutes Protection)” value is 10.0 min.
The value for `CCNC(C)CN1CCc2c(c(=O)oc3cc(C)ccc23)C1` (stereo not drawn) [H Me H Et H, 3-[2-(Ethylamine)propyl]-1,2,3,4-tetrahydro-8-methyl-5H-[1]benzopyrano[3,4-c]pyridin-5-one] was 10.0 min; that for `CCCN(CC)C(C)CN1CCc2c(c(=O)oc3cc(OC)ccc23)C1` (stereo not drawn) [H MeO H Et n-Pr, 3-[2-(Ethylpropylamino)propyl]-1,2,3,4-tetrahydro-8-methoxy-5H-[1]benzopyrano[3,4-c]pyridin-5-one] was 10.0 min; that for `CCN(CC)C(C)CN1CCc2c(c(=O)oc3cc(C)c(Cl)cc23)C1` (stereo not drawn) [Cl Me H Et Et, 9-Chloro-3-[2-(diethylamino)propyl]-1,2,3,4-tetrahydro-8-methyl-5H-[1]benzopyrano[3,4-c]pyridin-5-one] was 3.4 min.
In the case of `CCCN(CC)C(C)CN1CCc2c(c(=O)oc3ccccc23)C1` (stereo not drawn) [H H H Et Pr, 3-[2-(Ethylpropylamino)propyl]-1,2,3,4-tetrahydro-5H-[1]benzopyrano[3,4-c]pyridin-5-one], the “(Minutes Protection)” value came to 6.4 min.
With `CCCCN(C)C(C)CN1CCc2c(c(=O)oc3cc(OC)ccc23)C1` (stereo not drawn) [H MeO H Me n-Bu], the “(Minutes Protection)” value was 8.6 min.
On to `CCN(C)C(C)CN1CCc2c(c(=O)oc3cc(OC)c(OC)cc23)C1.Cl.Cl` (stereo not drawn) [MeO MeO H Me Et, 3-[2-(Ethylmethylamino)propyl]-1,2,3,4-tetrahydro-8,9-dimethoxy-5H-[1]benzopyrano[3,4-c]pyridin-5-one dihydrochloride], for which the “(Minutes Protection)” value worked out at 6.0 min.
Regarding `COc1ccc2c3c(c(=O)oc2c1)CN(CC(C)N(C)C)CC3.Cl.Cl` (stereo not drawn) [H MeO H Me Me, 3-[2-(Dimethylamino)propyl]-1,2,3,4-tetrahydro-8-methoxy-5H-[1]benzopyrano[3,4-c]pyridin-5-one dihydrochloride], the “(Minutes Protection)” value was 10.0 min.
For the compound `CCCN(CC)C(C)CN1CCc2c(c(=O)oc3cc(C)ccc23)C1` (stereo not drawn) [H Me H Et n-Pr, 3-[2-(Ethylpropylamino)propyl]-1,2,3,4-tetrahydro-8-methyl-5H-[1]benzopyrano[3,4-c]pyridin-5-one], the “(Minutes Protection)” value was 7.6 min.
